Measured values published in US12195467B2, “Compound having TrkA inhibitory activity and pharmaceutical composition, for preventing or alleviating pain, containing same as active ingredient” (JBKLAB CO., LTD., priority 2018, dated 2025).

Columns and labels:
[1] = test system: postoperative pain animal model; test: Pharmacological activity in postoperative pain model (von-Frey mechanical allodynia, 50% withdrawal threshold); format: in vivo, Sprague-Dawley male rats
Experimental: Sprague-Dawley male rats weighing around 150 g (Orient bio., Korea) were used. Rats were raised in an environment where a 12-hour light-dark cycle was maintained, 4 per transparent plastic cage covered with scob as bedding. Food and water were provided freely. To verify the analgesic effect of the example compounds, all rats were anesthetized with O2 delivered from the induction chamber at a ratio of 3:3 of isoflurane and operated. Anesthetized rats were placed on a 37° C. warm plate to prevent hypothermia during the operation. The ipsilateral sole (left) of the hind paw of the experimental animal was disinfected with 10% povidone-iodine solution, and incised to a length of 1 cm with a #11 surgical knife. The incision was made starting from 0.5 cm of the proximal edge of the heel through the skin and fascia on the side of the ipsilateral sole toward the toe. After the incision, a gentle pressure was applied to the incision site to stop the bleeding and the skin was sutured. The surgical site was sterilized with 10% povidone-iodine solution, and gentamicin (8 mg/kg) was administered intraperitoneally to prevent infection. The analgesic effect of the compound on postoperative pain was evaluated in the experimental animals 2 days after the surgery. […] The formula for calculating the 50% withdrawal threshold (g) is as follows. 50% Withdrawal threshold (g)=(10^(x+kd))/10^4 [Mathematical Formula 1] • x=the value of the last tested filament (log unit value). • k=the value indicating positive/negative reaction by up-down method. • d=the value fixed at 0.224 as the average difference between stimuli.

TrkA = biological target: T1, TrkA (Homo sapiens, UniProt P04629); test: TrkA inhibitory activity, CycLex TrkA kinase assay/inhibitor screening kit; format: biochemical; settings: for inhibition at 1 µM: compound 1 μM, read-out: % inhibition rate (based on 1 μM)
T1 construct: purchased MBL International (CycLex) CY-1091
T1 sequence (P04629 33-796): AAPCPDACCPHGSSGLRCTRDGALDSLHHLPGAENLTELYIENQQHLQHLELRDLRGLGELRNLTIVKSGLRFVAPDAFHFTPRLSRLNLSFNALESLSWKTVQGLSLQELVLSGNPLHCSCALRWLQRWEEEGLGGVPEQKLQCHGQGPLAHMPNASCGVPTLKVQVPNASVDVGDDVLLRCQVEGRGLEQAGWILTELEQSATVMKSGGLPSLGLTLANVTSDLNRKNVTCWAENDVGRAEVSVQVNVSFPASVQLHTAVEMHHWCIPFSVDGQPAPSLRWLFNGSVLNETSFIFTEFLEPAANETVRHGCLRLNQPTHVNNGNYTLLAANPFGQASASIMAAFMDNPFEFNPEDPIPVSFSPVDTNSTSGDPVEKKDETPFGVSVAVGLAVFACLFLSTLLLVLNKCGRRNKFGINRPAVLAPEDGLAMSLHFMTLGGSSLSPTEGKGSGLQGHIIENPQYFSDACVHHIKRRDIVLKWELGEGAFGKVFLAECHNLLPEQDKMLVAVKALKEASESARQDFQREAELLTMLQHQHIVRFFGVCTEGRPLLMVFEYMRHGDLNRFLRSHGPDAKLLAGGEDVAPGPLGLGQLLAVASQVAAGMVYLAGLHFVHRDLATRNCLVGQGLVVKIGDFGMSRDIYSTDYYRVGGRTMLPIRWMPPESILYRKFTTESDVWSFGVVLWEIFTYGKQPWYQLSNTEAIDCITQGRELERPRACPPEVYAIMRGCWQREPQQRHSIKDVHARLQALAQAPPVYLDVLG
Experimental: The TrkA inhibitory activity of the compounds was evaluated using CycLex® TrkA kinase assay/inhibitor screening kit of MBL International (Cat No. CY-1091). The test was carried out according to the analysis method provided by the manufacturer. The test method is as follows.
1. 1× wash buffer was prepared by diluting 10× wash buffer in ddH2O.
2. 20×ATP solution (1.25 mM) was prepared by adding 1.6 mL of distilled water to the tube containing ATP dissolved in NA2 salt and freeze-dried.
4. A working solution mixture and a solution of the appropriate concentration of the example compound to evaluate the activity of the example compound were prepared and dispensed into a 96-well plate as shown in table below.
5. After dispensing the solutions into a 96-well plate, the plate was incubated at 30° C. for 30 minutes.
6. After incubation of the plate at 30° C. for 30 minutes, 200 μL of 1× wash buffer was added into each well of the plate, followed by washing. This process was repeated 5 times.
7. After washing the plate, 100 μL of HRP conjugated detection antibody (PX-39) was added into each well of the plate, followed by reaction at room temperature for 60 minutes.
8. Upon completion of the reaction, 200 μL of 1× wash buffer was added into each well of the plate, followed by washing. This process was repeated 5 times.
9. After washing the plate, 100 μL of substrate reagent containing chromogenic substrate and tetra-methylbenzidine (TMB) was added into each well of the plate, followed by incubation at room temperature for 5-15 minutes.
10. Upon completion of the reaction, 100 μL of stop solution (1 N H2SO4) was added into each well of the plate, followed by measuring OD450 within 30 minutes.

TrkC = biological target: T2, TrkC (Homo sapiens, UniProt Q16288); test: PathHunter eXpress TrkC functional assay kit (U2OS cells, agonist NT-3); format: cell-based; settings: compound 1 μM, read-out: TrkC % inhibition rate (based on 1 μM)
T2 construct: host or cells: U2OS
T2 sequence (Q16288 32-839): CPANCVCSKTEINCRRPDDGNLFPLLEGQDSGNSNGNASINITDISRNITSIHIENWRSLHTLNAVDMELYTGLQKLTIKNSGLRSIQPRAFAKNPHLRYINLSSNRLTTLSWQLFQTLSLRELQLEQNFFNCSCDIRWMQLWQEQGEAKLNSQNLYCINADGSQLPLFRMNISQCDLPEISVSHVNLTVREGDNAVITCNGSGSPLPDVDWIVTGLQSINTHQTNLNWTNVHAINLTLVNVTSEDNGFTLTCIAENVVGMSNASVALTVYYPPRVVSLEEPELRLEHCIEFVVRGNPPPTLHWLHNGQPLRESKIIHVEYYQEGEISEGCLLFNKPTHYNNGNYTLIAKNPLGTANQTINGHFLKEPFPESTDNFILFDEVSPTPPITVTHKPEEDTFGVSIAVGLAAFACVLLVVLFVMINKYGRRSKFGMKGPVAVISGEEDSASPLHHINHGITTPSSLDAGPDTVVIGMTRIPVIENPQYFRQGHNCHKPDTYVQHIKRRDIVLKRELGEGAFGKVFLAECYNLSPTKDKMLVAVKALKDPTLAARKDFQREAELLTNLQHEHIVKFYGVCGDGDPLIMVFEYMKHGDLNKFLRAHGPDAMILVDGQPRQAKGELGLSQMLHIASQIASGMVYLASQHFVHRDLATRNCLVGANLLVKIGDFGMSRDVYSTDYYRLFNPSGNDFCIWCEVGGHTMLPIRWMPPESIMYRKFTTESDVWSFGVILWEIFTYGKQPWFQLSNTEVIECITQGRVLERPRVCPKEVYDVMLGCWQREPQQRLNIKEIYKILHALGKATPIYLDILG
Experimental: (§1) The inhibitory activity of the example compounds against TrkB and TrkC was evaluated using PathHunter® eXpress TrkB or TrkC functional assay kit (Product Code: 93-0463E3 and 93-0464E3) of DiscoverX. The test was carried out according to the analysis method provided by the manufacturer. The test was carried out as follows over 2 or 3 days depending on the conditions of cells.
(§2) 1. Before starting the experiment, the cell plating (CP) reagent stored at −80° C. was dissolved in a 37° C. water bath.
(§3) 2. When the CP reagent was dissolved, cell vials for TrkB or TrkC were prepared to be dissolved.
(§4) 3. Two U2OS cell vials (TrkB kit & TrkC kit) stored in liquid nitrogen were thawed.
(§5) 4. 500 μL of CP reagent was added to the thawed cell vial, and the cells were sufficiently mixed by pipetting and transferred to a Conical tube in which 11.5 mL of CP reagent was dispensed.
(§6) 5. 12 mL cells (1×10^6 cells in CP reagent) were seeded on a 96-well tissue culture treated plate (100 μL/well), followed by culture in a 37° C., 5% CO2 humidified incubator for 24 hours or 48 hours.
(§7) Day 2 or Day 3: Treatment of Test Material
(§8) 1. Test material, agonist and antagonist were prepared as stock solutions according to the experiment design. • Test material: 10 mM Stock solution in DMSO • Antagonist (GNF-5837): 10 mM Stock solution in 1.8674 mL DMSO • Agonist: TrkB agonist→BDNF, TrkC agonist→NT-3
(§9) 2. 10 mM stock solutions of teat material and antagonist having the concentration of 22 times more concentrated than the final screening concentration were prepared according to the experiment design.
(§10) 3. Each well of the 96-well culture plate containing cells was treated with 5 μL of the solutions of teat material and antagonist having the concentration of 22 times more concentrated than the final screening concentration (#2), followed by incubation at 37° C. for 60 minutes.
(§11) 4. During the incubation, 10 μg/mL stock solution of each agonist for TrkB and TrkC was prepared using a reconstitution buffer for the purpose of the experiment, and each well of the plate was treated with 5 μL of the prepared solution, followed by incubation at 19-25° C. for 3 hours.
(§12) 5. During the incubation, a detection reagent working solution (4.75 ml Cell assay buffer, 1.25 ml Substrate Reagent 1, 0.25 ml Substrate Reagent 2) was prepared. Upon completion of the incubation, 55 μL of the working solution was added into each well of the plate.
(§13) 7. The plate was incubated at room temperature for 60 minutes in a dark place, and the […] was measured with a luminescence plate reader.

TrkB = biological target: T3, TrkB (Homo sapiens, UniProt Q16620); test: PathHunter eXpress TrkB functional assay kit (U2OS cells, agonist BDNF); format: cell-based; settings: for inhibition at 1 µM: compound 1 μM, read-out: TrkB % inhibition rate (based on 1 μM)
T3 construct: host or cells: U2OS
T3 sequence (Q16620 32-822): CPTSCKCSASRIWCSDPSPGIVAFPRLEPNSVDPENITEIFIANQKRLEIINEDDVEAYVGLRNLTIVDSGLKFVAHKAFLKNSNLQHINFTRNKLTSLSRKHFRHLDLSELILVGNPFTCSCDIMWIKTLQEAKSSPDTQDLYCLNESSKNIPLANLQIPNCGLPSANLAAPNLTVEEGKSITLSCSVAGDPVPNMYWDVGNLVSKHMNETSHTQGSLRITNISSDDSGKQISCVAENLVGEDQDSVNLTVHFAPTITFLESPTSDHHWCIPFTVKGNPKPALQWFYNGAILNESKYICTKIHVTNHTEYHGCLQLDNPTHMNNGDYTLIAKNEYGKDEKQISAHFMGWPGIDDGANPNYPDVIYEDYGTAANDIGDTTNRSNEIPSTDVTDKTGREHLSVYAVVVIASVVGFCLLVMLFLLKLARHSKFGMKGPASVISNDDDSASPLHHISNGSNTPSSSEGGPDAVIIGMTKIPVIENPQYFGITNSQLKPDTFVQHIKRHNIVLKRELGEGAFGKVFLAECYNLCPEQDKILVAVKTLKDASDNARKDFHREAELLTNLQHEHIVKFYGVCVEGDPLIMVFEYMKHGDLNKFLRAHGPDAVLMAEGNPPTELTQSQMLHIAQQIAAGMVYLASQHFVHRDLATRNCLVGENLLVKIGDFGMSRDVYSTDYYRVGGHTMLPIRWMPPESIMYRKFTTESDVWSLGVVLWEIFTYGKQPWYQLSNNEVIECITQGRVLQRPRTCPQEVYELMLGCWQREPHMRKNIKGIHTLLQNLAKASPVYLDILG
Experimental: as §1, §2, §3, §4, §5, §6, §7, §8, §9, §10, §11, §12, §13

SMILES	inhibition at 1 µM (TrkA) [%]	further results
CC(C)C[C@H](CN)CC(=O)O [Lyrica, Pregabalin, reference compound]	–	ED50 ([1]; Rattus norvegicus, po, 48 h): 17.5 mg/kg; Maximum duration of drug efficacy ([1]; oral, rat postoperative pain model, 2 days after surgery): 1.0 h
CN1CCN(c2ccc(C(=O)Nc3c[nH]c4ncnc(N5CCC(C(N)=O)CC5)c34)cc2)CC1 [Example 20, 1-(5-(4-(4-methylpiperazine-1-yl)benzamido)-7H-pyrrolo[2,3-d]pyrimidine-4-yl)piperidine-4-carboxamide]	4	–
Cn1cc(-c2cnc3[nH]nc(Nc4cccc(Cl)c4)c3c2)cn1 [Example 4, N-(3-chlorophenyl)-5-(1-methyl-1H-pyrazole-4-yl)-1H-pyrazolo[3,4-b]pyridine-3-amine]	59	–
Clc1cc(Cl)cc(Nc2n[nH]c3ncc(-c4cnn(C5CCNCC5)c4)cc23)c1 [Example 7, N-(3,5-dichlorophenyl)-5-(1-(piperidine-4-yl)-1H-pyrazole-4-yl)-1H-pyrazolo[3,4-b]pyridine-3-amine]	37	–
Cn1cc(-c2cnc3[nH]nc(Nc4ccc(Cl)c(Cl)c4)c3c2)cn1 [Example 5, N-(3,4-dichlorophenyl)-5-(1-methyl-1H-pyrazole-4-yl)-1H-pyrazolo[3,4-b]pyridine-3-amine]	32	–
COc1ccc(Cn2cc(NC(=O)c3ccc(N4CCN(C)CC4)cc3)c3c(-c4cnn(C5CCNCC5)c4)ncnc32)cc1 [Example 16, N-(7-(4-methoxybenzyl)-4-(1-(piperidine-4-yl)-1H-pyrazole-4-yl)-7H-pyrrolo[2,3-d]pyrimidine-5-yl)-4-(4-methylpiperazine-1-yl)benzamide]	8	–
CN1CCN(c2ccc(C(=O)Nc3c[nH]c4ncnc(N5CCC(N6CCCC6)CC5)c34)cc2)CC1 [Example 19, 4-(4-methylpiperazine-1-yl)-N-(4-(4-(pyrrolidine-1-yl)piperidine-1-yl)-7H-pyrrolo[2,3-d]pyrimidine-5-yl)benzamide]	-1	–
CN1CCN(c2ccc(C(=O)Nc3c[nH]c4ncnc(-c5cnn(C6CCN(C(=O)OC(C)(C)C)CC6)c5)c34)cc2)CC1 [Example 18, tert-butyl 4-(4-(5-(4-(4-methylpiperazine-1-yl)benzamido)-7H-pyrrolo[2,3-d]pyrimidine-4-yl)-1H-pyrazole-1-yl)piperidine-1-carboxylate]	24	–
Clc1cccc(Nc2n[nH]c3cnc(-c4cccnc4)cc23)c1 [Example 1, N-(3-chlorophenyl)-5-(pyridine-3-yl)-1H-pyrazolo[3,4-c]pyridine-3-amine]	12	–
CN1CCN(c2ccc(C(=O)Nc3n[nH]c4ncc(-c5cnn(C6CCNCC6)c5)cc34)cc2)CC1 [Example 8, 4-(4-methylpiperazine-1-yl)-N-(5-(1-(piperidine-4-yl)-1H-pyrazole-4-yl)-1H-pyrazolo[3,4-b]pyridine-3-yl)benzamide]	99	–
CN1CCN(c2ccc(C(=O)Nc3n[nH]c4ncc(-c5ccc(F)cc5)cc34)cc2)CC1 [Example 11, N-(5-(4-fluorophenyl)-1H-pyrazolo[3,4-b]pyridine-3-yl)-4-(4-methylpiperazine-1-yl)benzamide]	99	inhibition at 1 µM (TrkC): 9%; inhibition at 1 µM (TrkB): 17%; IC50 (TrkA): 218 nM
O=C(Nc1n[nH]c2ncc(-c3cnn(C4CCNCC4)c3)cc12)c1ccc(F)cc1 [Example 22, 4-fluoro-N-(5-(1-(piperidine-4-yl)-1H-pyrazole-4-yl)-1H-pyrazolo[3,4-b]pyridine-3-yl)benzamide]	99	inhibition at 1 µM (TrkC): 20%; inhibition at 1 µM (TrkB): -2%; IC50 (TrkA): 436 nM
CN1CCN(c2ccc(C(=O)Nc3c[nH]c4ncnc(-c5cc(Cl)c(O)c(Cl)c5)c34)cc2)CC1 [Example 24, N-(4-(3,5-dichloro-4-hydroxyphenyl)-7H-pyrrolo[2,3-d]pyrimidine-5-yl)-4-(4-methylpiperazine-1-yl)benzamide]	49	–
CC(C)NC(=O)Nc1cccc(-c2cnc3[nH]nc(NC(=O)c4ccc(N5CCN(C)CC5)cc4)c3c2)c1 [Example 9, N-(5-(3-(3-isopropylureido)phenyl)-1H-pyrazolo[3,4-b]pyridine-3-yl)-4-(4-methylpiperazine-1-yl)benzamide]	81	inhibition at 1 µM (TrkC): -20%; inhibition at 1 µM (TrkB): 1%
Clc1ccc(Nc2n[nH]c3cnc(-c4cnn(C5CCNCC5)c4)cc23)cc1Cl [Example 2, N-(3,4-dichlorophenyl)-5-(1-(piperidine-4-yl)-1H-pyrazole-4-yl)-1H-pyrazolo[3,4-c]pyridine-3-amine]	6	–
CN1CCN(c2ccc(C(=O)Nc3c[nH]c4ncnc(-c5cnn(C6CCNCC6)c5)c34)cc2)CC1 [Example 17, 4-(4-methylpiperazine-1-yl)-N-(4-(1-(piperidine-4-yl)-1H-pyrazole-4-yl)-7H-pyrrolo[2,3-d]pyrimidine-5-yl)benzamide]	-11	–
Oc1c(Cl)cc(-c2c[nH]c3ncnc(NC4CCC(O)CC4)c23)cc1Cl (stereo not drawn) [Example 23, 2,6-dichloro-4-(4-((1s,4s)-4-hydroxycyclohexylamino)-7H-pyrrolo[2,3-d]pyrimidine-5-yl)phenol]	100	inhibition at 1 µM (TrkC): 15%; IC50 (TrkB): 894 nM; inhibition at 1 µM (TrkB): 56%; IC50 (TrkA): 57.9 nM
CN1CCN(c2ccc(C(=O)Nc3c[nH]c4ncnc(N5CCCC(NC(N)=O)C5)c34)cc2)CC1 (stereo not drawn) [Example 21, 4-(4-methylpiperazine-1-yl)-N-(4-(3-ureidopiperidine-1-yl)-7H-pyrrolo[2,3-d]pyrimidine-5-yl)benzamide]	0	–
Clc1cc(Cl)cc(Nc2n[nH]c3cnc(-c4cnn(C5CCNCC5)c4)cc23)c1 [Example 3, N-(3,5-dichlorophenyl)-5-(1-(piperidine-4-yl)-1H-pyrazole-4-yl)-1H-pyrazolo[3,4-c]pyridine-3-amine]	6	–
Cn1cc(-c2cnc3[nH]nc(Nc4cc(Cl)cc(Cl)c4)c3c2)cn1 [Example 6, N-(3,5-dichlorophenyl)-5-(1-methyl-1H-pyrazole-4-yl)-1H-pyrazolo[3,4-b]pyridine-3-amine]	32	–
